Toxic doses and inconclusive results are not listed. No stated cut-off is given here; in the data, active means T/C of 150% or more; inactive means T/C below 125%.
Tested on: L1210 leukemia ip in BDF1 mice, survival T/C
Assay: NCI In Vivo Anticancer Drug Screen. Data for tumor model L1210 Leukemia (intraperitoneal) in B6D2F1 (BDF1) mice
Settings: endpoint: mean survival time, higher = longer survival
Summary of the method: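 Tumor cells were implanted, animals were treated, and survival was followed. The result divides the treated measurement by the vehicle-control measurement.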

[1] = dose: 75.0 mg/kg/injection, schedule: Q01DX001 (ip), vehicle: saline
[2] = dose: 100.0 mg/kg/injection, schedule: Q04DX003 (ip), vehicle: saline with Tween-80
[3] = dose: 200.0 mg/kg/injection, schedule: Q04DX003 (ip), vehicle: saline with Tween-80
[4] = dose: 100.0 mg/kg/injection, schedule: Q01DX009 (ip), vehicle: saline with Tween-80
[5] = dose: 200.0 mg/kg/injection, schedule: Q01DX009 (ip), vehicle: saline with Tween-80
[6] = dose: 400.0 mg/kg/injection, schedule: Q01DX009 (ip), vehicle: saline with Tween-80
[7] = dose: 100.0 mg/kg/injection, schedule: Q04DX002 (ip), vehicle: saline
[8] = dose: 200.0 mg/kg/injection, schedule: Q04DX002 (ip), vehicle: saline
[9] = dose: 100.0 mg/kg/injection, schedule: Q01DX009 (ip), vehicle: Klucel (hydroxypropylcellulose) (HPC)
[10] = dose: 200.0 mg/kg/injection, schedule: Q01DX009 (ip), vehicle: Klucel (hydroxypropylcellulose) (HPC)
[11] = dose: 100.0 mg/kg/injection, schedule: Q04DX002 (ip), vehicle: Klucel (hydroxypropylcellulose) (HPC)
[12] = dose: 200.0 mg/kg/injection, schedule: Q04DX002 (ip), vehicle: Klucel (hydroxypropylcellulose) (HPC)
[13] = dose: 400.0 mg/kg/injection, schedule: Q04DX002 (ip), vehicle: Klucel (hydroxypropylcellulose) (HPC)

Measured: T/C

CCOP(N)(=S)OCC
inactive: [1] 102 % of control | dose: 150.0 mg/kg/injection, schedule: Q01DX001 (ip), vehicle: saline 102 % of control

O=C(O)c1cnc(Cl)c([N+](=O)[O-])c1
inactive: [2] 96 % of control | [3] 89 % of control

COC1/C=C/O[C@@]2(C)Oc3c(C)c(O)c4c(O)c(cc(O)c4c3C2=O)NC(=O)/C(C)=C\C=C\[C@H](C)C(O)[C@@H](C)[C@@H](O)[C@@H](C)[C@H](OC(C)=O)[C@@H]1C (stereo not given in full)
inactive: dose: 4.0 mg/kg/injection, schedule: Q03HX040 (ip), vehicle: saline 101 % of control | dose: 8.0 mg/kg/injection, schedule: Q03HX040 (ip), vehicle: saline 103 % of control | dose: 16.0 mg/kg/injection, schedule: Q03HX040 (ip), vehicle: saline 97 % of control | [4] 104 % of control | [2] 95 % of control | dose: 119.0 mg/kg/injection, schedule: Q01DX009 (ip), vehicle: saline 98 % of control | dose: 128.0 mg/kg/injection, schedule: Q03HX024 (ip), vehicle: saline 92 % of control | dose: 128.0 mg/kg/injection, schedule: Q03HX040 (ip), vehicle: saline 89 % of control | dose: 178.0 mg/kg/injection, schedule: Q01DX009 (ip), vehicle: saline 96 % of control | [5] 92 % of control | [3] 87 % of control | dose: 256.0 mg/kg/injection, schedule: Q03HX024 (ip), vehicle: saline 93 % of control | dose: 267.0 mg/kg/injection, schedule: Q01DX009 (ip), vehicle: saline 98 % of control | [6] 97 % of control | dose: 400.0 mg/kg/injection, schedule: Q01DX009 (ip), vehicle: saline 104 % of control | dose: 400.0 mg/kg/injection, schedule: Q04DX003 (ip), vehicle: saline with Tween-80 101 % of control | dose: 512.0 mg/kg/injection, schedule: Q03HX024 (ip), vehicle: saline 92 % of control | dose: 512.0 mg/kg/injection, schedule: Q03HX040 (ip), vehicle: saline 88 % of control | dose: 1024.0 mg/kg/injection, schedule: Q03HX024 (ip), vehicle: saline 98 % of control

Fc1ccc2[nH]c3cc4ccncc4cc3c2c1
inactive: dose: 50.0 mg/kg/injection, schedule: Q04DX002 (ip), vehicle: saline 101 % of control | [7] 94 % of control | [8] 94 % of control

CCNc1ccc([N+](=O)[O-])cn1
inactive: [9] 104 % of control | [10] 106 % of control

Oc1c(Cl)cc(Cl)cc1/C=C1\C=Nc2ccccc21
inactive: [7] 97 % of control | [8] 94 % of control | dose: 400.0 mg/kg/injection, schedule: Q04DX002 (ip), vehicle: saline 102 % of control

Cc1ccc(S(=O)(=O)NCCC(=N)N)cc1
inactive: dose: 100.0 mg/kg/injection, schedule: Q01DX001 (ip), vehicle: saline 93 % of control | dose: 200.0 mg/kg/injection, schedule: Q01DX001 (ip), vehicle: saline 101 % of control

CC1OC(C2COC(C)(C)O2)C2OC(C)(C)OC12 (stereo not given)
inactive: dose: 100.0 mg/kg/injection, schedule: Q01DX001 (ip), vehicle: saline with Tween-80 101 % of control | dose: 200.0 mg/kg/injection, schedule: Q01DX001 (ip), vehicle: saline with Tween-80 101 % of control | dose: 400.0 mg/kg/injection, schedule: Q01DX001 (ip), vehicle: saline with Tween-80 101 % of control

CC(=O)OI(OC(C)=O)c1ccc(-c2ccccc2)cc1
inactive: [9] 91 % of control | [10] 102 % of control

CCOC(=O)C1OC12CCC(C(C)(C)C)CC2 (stereo not given)
inactive: [4] 95 % of control | dose: 100.0 mg/kg/injection, schedule: Q04DX002 (ip), vehicle: saline with Tween-80 100 % of control | [5] 91 % of control | dose: 200.0 mg/kg/injection, schedule: Q04DX002 (ip), vehicle: saline with Tween-80 100 % of control | [6] 88 % of control | dose: 400.0 mg/kg/injection, schedule: Q04DX002 (ip), vehicle: saline with Tween-80 93 % of control

Cc1cc(C)c(NC(=O)NC2CCCCC2)cc1C
inactive: [11] 105 % of control | [12] 94 % of control | [13] 94 % of control

CCc1nc2ccccc2[nH]1
inactive: [2] 97 % of control | [3] 102 % of control

CC(=O)NNCc1ccccc1
inactive: dose: 100.0 mg/kg/injection, schedule: Q01DX001 (ip), vehicle: Klucel (hydroxypropylcellulose) (HPC) 103 % of control | dose: 200.0 mg/kg/injection, schedule: Q01DX001 (ip), vehicle: Klucel (hydroxypropylcellulose) (HPC) 103 % of control | dose: 400.0 mg/kg/injection, schedule: Q01DX001 (ip), vehicle: Klucel (hydroxypropylcellulose) (HPC) 97 % of control

C=CCOC(=O)C1(O)c2ccccc2NC(=S)N1CC=C (stereo not given)
inactive: [9] 104 % of control | [11] 97 % of control | [10] 93 % of control | [12] 97 % of control | dose: 400.0 mg/kg/injection, schedule: Q01DX009 (ip), vehicle: Klucel (hydroxypropylcellulose) (HPC) 93 % of control | [13] 100 % of control

CC(=O)Oc1cc(OC(C)=O)c(Oc2cc(OC(C)=O)c(Oc3cc(OC(C)=O)c(OC(C)=O)c(OC(C)=O)c3)c(OC(C)=O)c2)c(OC(C)=O)c1
inactive: dose: 50.0 mg/kg/injection, schedule: Q04DX003 (ip), vehicle: saline with Tween-80 97 % of control | [2] 95 % of control | [3] 95 % of control

O=S1(=O)CC(N2CCCCC2)C1
inactive: [1] 103 % of control

CC1CC(=O)c2c(O)ccc(O)c21 (stereo not given)
inactive: dose: 100.0 mg/kg/injection, schedule: Q01DX001 (ip), vehicle: carboxymethylcellulose (CMC) 96 % of control | dose: 200.0 mg/kg/injection, schedule: Q01DX001 (ip), vehicle: carboxymethylcellulose (CMC) 89 % of control | dose: 400.0 mg/kg/injection, schedule: Q01DX001 (ip), vehicle: carboxymethylcellulose (CMC) 100 % of control

From PubChem BioAssay AID248 (DTP/NCI, 2004)
